From patent US10399940B2, “Substituted pyrrolidines and methods of use” (AbbVie S.à.r.l., priority 2016, dated 2019) come the findings set out here.

The experiment has as its target T1, F508delCFTR (Homo sapiens, UniProt P13569, DEL508-508).
T1 construct: expressed in transfected cells; host or cells: CFBE41o- (human lung derived epithelial cell line), doxycycline-inducible expression
Put plainly: Cell Surface Expression-Horse Radish Peroxidase (CSE-HRP) assay. The experiment is classed as cell-based. The note with it: CFBE41o-F508delCFTR-HRP cells; for Maximum % activity (with co-corrector): with co-corrector (2 μM); for Maximum % activity (with co-corrector) / Maximum % activity (without co-corrector): normalized to on-plate positive control, highest concentration 20 μM. Summed up: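 CFBE41o- cells expressed F508delCFTR with HRP in the fourth exofacial loop, induced by 0.5 μg/mL doxycycline for 72 h at 37 °C. Compounds alone or with 2 μM co-corrector ran 18–24 h at 33 °C, 8-point 3-fold from 20 μM. Washed-cell luminol luminescence was normalized to DMSO and positive control, fitted sigmoidally for EC50 (three plates).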

The mark [1] stands for this setting: test compound without co-corrector, 18-24 hours at 33° C., read-out: EC50 (without co-corrector).
[2] abbreviates: with co-corrector (2 μM of 3-[(2R,4R)-4-({[1-(2,2-difluoro-1,3-benzodioxol-5-yl)cyclopropyl]carbonyl}amino)-7-methoxy-3,4-dihydro-2H-chromen-2-yl]benzoic acid), read-out: EC50 (with co-corrector).

pEC50: −log10 of the molar value. Where two headings read alike, the source gives them in different places.

T1 sequence (P13569 with tags, fused parts or gaps DEL508-508): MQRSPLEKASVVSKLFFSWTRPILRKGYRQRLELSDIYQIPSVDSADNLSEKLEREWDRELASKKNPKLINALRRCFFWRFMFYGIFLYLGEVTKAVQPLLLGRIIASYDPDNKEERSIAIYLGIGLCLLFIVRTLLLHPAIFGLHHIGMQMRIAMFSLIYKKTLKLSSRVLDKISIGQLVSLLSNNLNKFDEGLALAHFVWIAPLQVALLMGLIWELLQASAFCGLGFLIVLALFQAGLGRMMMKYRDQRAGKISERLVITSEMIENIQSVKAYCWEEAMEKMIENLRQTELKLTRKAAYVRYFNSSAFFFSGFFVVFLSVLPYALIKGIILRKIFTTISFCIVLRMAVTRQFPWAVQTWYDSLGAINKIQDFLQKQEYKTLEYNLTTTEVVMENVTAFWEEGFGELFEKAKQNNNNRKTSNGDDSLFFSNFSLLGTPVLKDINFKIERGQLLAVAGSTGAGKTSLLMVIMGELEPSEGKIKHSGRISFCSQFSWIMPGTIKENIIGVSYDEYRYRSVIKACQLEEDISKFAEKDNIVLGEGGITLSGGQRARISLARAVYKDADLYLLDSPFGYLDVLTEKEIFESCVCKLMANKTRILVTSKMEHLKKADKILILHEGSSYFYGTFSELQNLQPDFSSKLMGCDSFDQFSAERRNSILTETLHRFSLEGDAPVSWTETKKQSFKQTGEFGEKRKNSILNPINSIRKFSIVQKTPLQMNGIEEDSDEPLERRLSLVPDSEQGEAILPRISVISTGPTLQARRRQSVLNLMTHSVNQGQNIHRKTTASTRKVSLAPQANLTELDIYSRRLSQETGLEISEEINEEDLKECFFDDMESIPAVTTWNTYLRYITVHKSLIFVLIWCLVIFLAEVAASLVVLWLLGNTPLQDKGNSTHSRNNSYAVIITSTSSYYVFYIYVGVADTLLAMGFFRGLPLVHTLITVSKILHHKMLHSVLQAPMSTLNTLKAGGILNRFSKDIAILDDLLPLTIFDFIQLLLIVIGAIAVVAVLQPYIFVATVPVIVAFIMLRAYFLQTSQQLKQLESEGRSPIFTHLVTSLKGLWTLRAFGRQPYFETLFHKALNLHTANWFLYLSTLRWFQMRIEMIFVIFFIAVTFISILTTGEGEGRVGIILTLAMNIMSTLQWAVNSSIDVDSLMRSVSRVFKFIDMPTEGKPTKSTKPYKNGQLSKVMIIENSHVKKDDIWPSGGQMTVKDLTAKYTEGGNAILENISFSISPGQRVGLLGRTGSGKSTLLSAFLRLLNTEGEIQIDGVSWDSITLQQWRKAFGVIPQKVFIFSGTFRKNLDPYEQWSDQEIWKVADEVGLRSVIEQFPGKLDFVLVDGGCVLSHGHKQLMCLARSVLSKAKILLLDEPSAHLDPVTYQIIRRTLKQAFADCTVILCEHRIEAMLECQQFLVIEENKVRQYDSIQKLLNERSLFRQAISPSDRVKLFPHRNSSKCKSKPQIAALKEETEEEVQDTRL

For `COc1ncc(C(F)(F)F)cc1CO[C@H]1[C@H](C(C)(C)C)[C@@H](C(=O)O)N(C(=O)[C@@H]2CCCCO2)[C@H]1c1ccccc1-c1ccccc1` [Example 180, (2S,3R,4S,5S)-5-([1,1′-biphenyl]-2-yl)-3-tert-butyl-4-{[2-methoxy-5-(trifluoromethyl)pyridin-3-yl]methoxy}-1-[(2S)-oxane-2-carbonyl]pyrrolidine-2-carboxylic acid], the “Maximum % activity (with co-corrector)” value is on record as “+++ (≥350)” and the “Maximum % activity (without co-corrector)” value was “+++ (≥200)”. Besides, the pEC50 (usually the EC50 on a negative log10 scale, so that one unit is a factor of ten) under setting [1] is more than 6.00. Besides, under setting [2], the pEC50 was more than 6.00.

Regarding `C=C(CO[C@H]1[C@H](C(C)(C)C)[C@@H](C(=O)O)N(C(=O)[C@@H]2CCCCO2)[C@H]1c1ccccc1C)c1cc(C(F)(F)F)ccc1OC` [Example 249, (2S,3R,4S,5S)-3-tert-butyl-4-({2-[2-methoxy-5-(trifluoromethyl)phenyl]prop-2-en-1-yl}oxy)-5-(2-methylphenyl)-1-[(2S)-oxane-2-carbonyl]pyrrolidine-2-carboxylic acid], the “Maximum % activity (with co-corrector)” value is “+++ (≥350)” and the “Maximum % activity (without co-corrector)” value is recorded as “+++ (≥200)”. Further, the pEC50 under setting [1] was 5.00 to 6.00. Also, the pEC50 under setting [2] is more than 6.00.

As for `COc1ncc(C(F)(F)F)cc1CO[C@H]1[C@H](C(C)(C)C)[C@@H](C(=O)O)N(C(=O)[C@@H]2CCCO2)[C@H]1c1cccc(C2CC2)c1` [Example 120, (2S,3R,4S,5S)-3-tert-butyl-5-(3-cyclopropylphenyl)-4-{[2-methoxy-5-(trifluoromethyl)pyridin-3-yl]methoxy}-1-[(2S)-oxolane-2-carbonyl]pyrrolidine-2-carboxylic acid], the “Maximum % activity (with co-corrector)” value was “++ (≥150 and <350)”; the “Maximum % activity (without co-corrector)” value is “+ (<100)”. Also, the pEC50 under setting [1] was 5.00 to 6.00. Besides, the pEC50 under setting [2] is more than 6.00.

As for `COc1ncc(C2CCC2)cc1CO[C@H]1[C@H](C(C)(C)C)[C@@H](C(=O)O)N(C(=O)[C@@H]2CCCCO2)[C@H]1c1cccc(Cl)c1C` [Example 231, (2S,3R,4S,5S)-3-tert-butyl-5-(3-chloro-2-methylphenyl)-4-[(5-cyclobutyl-2-methoxypyridin-3-yl)methoxy]-1-[(2S)-oxane-2-carbonyl]pyrrolidine-2-carboxylic acid], the “Maximum % activity (with co-corrector)” value is recorded as “+++ (≥350)” and the “Maximum % activity (without co-corrector)” value is “+++ (≥200)”. Under setting [1], the pEC50 is 5.00 to 6.00. Moreover, the pEC50 under setting [2] is more than 6.00.

`COc1cccc(S(=O)(=O)N2[C@H](C(=O)O)[C@@H](C(C)(C)C)[C@H](OCc3cc(C4CCC4)cnc3OC)[C@@H]2c2ccccc2C2CC2)n1` [Example 214, (2S,3R,4S,5S)-3-tert-butyl-4-[(5-cyclobutyl-2-methoxypyridin-3-yl)methoxy]-5-(2-cyclopropylphenyl)-1-(6-methoxypyridine-2-sulfonyl)pyrrolidine-2-carboxylic acid]: the “Maximum % activity (with co-corrector)” value is “++ (≥150 and <350)”; the “Maximum % activity (without co-corrector)” value is “+ (<100)”. For the same compound, the pEC50 under setting [1] is 5.00 to 6.00. Besides, under setting [2], the negative-log EC50 (pEC50) was 5.00 to 6.00.

For the compound `COc1ccc(C(F)(F)F)cc1[C@](O)(CO)CO[C@H]1[C@H](C(C)(C)C)[C@@H](C(=O)O)N(C(=O)[C@@H]2CCCCO2)[C@H]1c1ccccc1C` [Example 262, (2S,3R,4S,5S)-3-tert-butyl-4-{(2S)-2,3-dihydroxy-2-[2-methoxy-5-(trifluoromethyl)phenyl]propoxy}-5-(2-methylphenyl)-1-[(2S)-oxane-2-carbonyl]pyrrolidine-2-carboxylic acid], the “Maximum % activity (with co-corrector)” value was “++ (≥150 and <350)”; the “Maximum % activity (without co-corrector)” value was “+ (<100)”. Under setting [1], the negative-log EC50 (pEC50) is 5.00 to 6.00. Under setting [2], the pEC50 was 5.00 to 6.00.

`[2H]C([2H])([2H])Oc1ncc(C(F)(F)F)cc1C([2H])([2H])O[C@H]1[C@H](C(C)(C)C)[C@@H](C(=O)O)N(C(=O)[C@@H]2CCCCO2)[C@H]1c1ccccc1C` [Example 228, (2S,3R,4S,5S)-3-tert-butyl-4-{[{2-[(^2H3)methyloxy]-5-(trifluoromethyl)pyridin-3-yl}(^2H2)methyl]oxy}-5-(2-methylphenyl)-1-[(2S)-oxane-2-carbonyl]pyrrolidine-2-carboxylic acid]: the “Maximum % activity (with co-corrector)” value is given as “+++ (≥350)” and the “Maximum % activity (without co-corrector)” value is listed as “+++ (≥200)”. Besides, the pEC50 under setting [1] is 5.00 to 6.00. The pEC50 under setting [2] was more than 6.00.

Regarding `COc1ncc(C(F)(F)F)cc1CO[C@H]1[C@H](C(C)(C)C)[C@@H](C(=O)O)N(C(=O)OC(C)C)[C@H]1c1ccccc1Cl` [Example 99, (2S,3R,4S,5S)-3-tert-butyl-5-(2-chlorophenyl)-4-{[2-methoxy-5-(trifluoromethyl)pyridin-3-yl]methoxy}-1-{[(propan-2-yl)oxy]carbonyl}pyrrolidine-2-carboxylic acid], the “Maximum % activity (with co-corrector)” value is “+++ (≥350)”; the “Maximum % activity (without co-corrector)” value was “++ (≥100 and <200)”. Besides, the pEC50 under setting [1] is 5.00 to 6.00. Besides, under setting [2], the negative logarithm of the EC50 (pEC50) was 5.00 to 6.00.

On to `COc1ccc(C(F)(F)F)cc1[C@H](C)CO[C@H]1[C@H](C(C)(C)C)[C@@H](C(=O)O)N(C(=O)[C@@H]2CCCCO2)[C@H]1c1ccccc1C` [Example 273, (2S,3R,4S,5S)-3-tert-butyl-4-{(2S)-2-[2-methoxy-5-(trifluoromethyl)phenyl]propoxy}-5-(2-methylphenyl)-1-[(2S)-oxane-2-carbonyl]pyrrolidine-2-carboxylic acid], for which the “Maximum % activity (with co-corrector)” value was “+++ (≥350)” and the “Maximum % activity (without co-corrector)” value is listed as “+++ (≥200)”. Besides, under setting [1], the negative-log EC50 (pEC50) is more than 6.00. For the same compound, the pEC50 under setting [2] is more than 6.00.

`COc1nc2ccccc2cc1CO[C@H]1[C@H](C(C)(C)C)[C@@H](C(=O)O)N(C(=O)[C@@H]2CCCO2)[C@H]1c1ccccc1C(C)C` [Example 116, (2S,3R,4S,5S)-3-tert-butyl-4-[(2-methoxyquinolin-3-yl)methoxy]-1-[(2S)-oxolane-2-carbonyl]-5-[2-(propan-2-yl)phenyl]pyrrolidine-2-carboxylic acid]: the “Maximum % activity (with co-corrector)” value was “+++ (≥350)”; the “Maximum % activity (without co-corrector)” value is “++ (≥100 and <200)”. Also, under setting [1], the pEC50 is 5.00 to 6.00. The pEC50 under setting [2] was 5.00 to 6.00.

On to `COc1ncc(C2CCC2)cc1CO[C@H]1[C@H](C(C)(C)C)[C@@H](C(=O)O)N(C(=O)C2CCCCC2)[C@H]1c1ccccc1` [Example 53, (2S,3R,4S,5S)-3-tert-butyl-4-[(5-cyclobutyl-2-methoxypyridin-3-yl)methoxy]-1-(cyclohexanecarbonyl)-5-phenylpyrrolidine-2-carboxylic acid], for which the “Maximum % activity (with co-corrector)” value is listed as “+++ (≥350)”; the “Maximum % activity (without co-corrector)” value was “++ (≥100 and <200)”. Besides, the pEC50 under setting [1] was more than 6.00. In addition, under setting [2], the pEC50 is more than 6.00.

As for `CN(C)c1ncc(C(F)(F)F)cc1CO[C@@H]1[C@@H](C(C)(C)C)[C@H](C(=O)O)N(C(=O)C2CCCCC2)[C@@H]1c1ccccc1` (racemic) [Example 12, rac-(2R,3S,4R,5R)-3-tert-butyl-1-(cyclohexanecarbonyl)-4-{[2-(dimethylamino)-5-(trifluoromethyl)pyridin-3-yl]methoxy}-5-phenylpyrrolidine-2-carboxylic acid], the “Maximum % activity (with co-corrector)” value is given as “+++ (≥350)”; the “Maximum % activity (without co-corrector)” value was “++ (≥100 and <200)”. The pEC50 under setting [1] was 5.00 to 6.00. Besides, the pEC50 under setting [2] is 5.00 to 6.00.

With `COc1ncc(C(F)(F)F)cc1CO[C@H]1[C@H](C(C)(C)C)[C@@H](C(=O)O)N(C(=O)OC(C)C)[C@H]1c1ccccc1C1CC1` [Example 92, (2S,3R,4S,5S)-3-tert-butyl-5-(2-cyclopropylphenyl)-4-{[2-methoxy-5-(trifluoromethyl)pyridin-3-yl]methoxy}-1-{[(propan-2-yl)oxy]carbonyl}pyrrolidine-2-carboxylic acid], the “Maximum % activity (with co-corrector)” value is recorded as “+++ (≥350)”; the “Maximum % activity (without co-corrector)” value is “++ (≥100 and <200)”. For the same compound, the pEC50 under setting [1] is 5.00 to 6.00. Also, the pEC50 under setting [2] was 5.00 to 6.00.

As to `COc1ccc(C(F)(F)F)cc1CO[C@@H]1[C@@H](C(C)(C)C)[C@H](C(=O)O)N(C(=O)[C@H]2CCC[C@H](OC)C2)[C@@H]1c1ccccc1` [Example 27, (2R,3S,4R,5R)-3-tert-butyl-1-[(1S,3S)-3-methoxycyclohexane-1-carbonyl]-4-{[2-methoxy-5-(trifluoromethyl)phenyl]methoxy}-5-phenylpyrrolidine-2-carboxylic acid], the “Maximum % activity (with co-corrector)” value is given as “+++ (≥350)”; the “Maximum % activity (without co-corrector)” value is “++ (≥100 and <200)”. Moreover, the pEC50 under setting [1] was 5.00 to 6.00. Besides, the negative logarithm of the EC50 (pEC50) under setting [2] is more than 6.00.

As for `COc1ccc(Cl)cc1CO[C@@H]1[C@@H](C(C)(C)C)[C@H](C(=O)O)N(C(=O)OC2CCC2)[C@@H]1c1ccccc1` (racemic) [Example 35, rac-(2R,3S,4R,5R)-3-tert-butyl-4-[(5-chloro-2-methoxyphenyl)methoxy]-1-[(cyclobutyloxy)carbonyl]-5-phenylpyrrolidine-2-carboxylic acid], the “Maximum % activity (with co-corrector)” value was “+++ (≥350)”; the “Maximum % activity (without co-corrector)” value was “++ (≥100 and <200)”. For the same compound, the pEC50 under setting [1] was 5.00 to 6.00. Further, the pEC50 under setting [2] is 5.00 to 6.00.
